Data set [1] can be described thus: Tested for the cytotoxicity against HIV-1 in human T-cell line. Format: cell-based. The following applies: read-out: TD50 (the source's name).
The test system of another data set is T-cell line. Kind of data set: Tested for its effective dose required to inhibit the replication of HIV-1 in human T-cell line. Format: functional. As to conditions: read-out: ED50 (the source's name).

pEC50: −log10 of the molar value.

As to `COC(=O)C(NP(=O)(OCC1OC(n2cc(C)c(=O)[nH]c2=O)CC1F)OCC(Cl)(Cl)Cl)C(C)C` (stereo not given), the CC50 in data set [1] was above 100 µM. In the data set with T-cell line, the pEC50 is 6.52.
In the same order, the values of `COC(=O)C(C)NP(=O)(OCC1OC(n2cc(C)c(=O)[nH]c2=O)CC1F)OCC(Cl)(Cl)Cl` (stereo not given) are above 100 µM and 6.52.
On the same counts, the results for `COC(=O)C(Cc1ccccc1)NP(=O)(NC(Cc1ccccc1)C(=O)OC)OCC1OC(n2cc(C)c(=O)[nH]c2=O)CC1F` (stereo not given) are above 100 µM and 5.30.
For the compound `Cc1cn(C2CC(F)C(COP(=O)(OCC(Cl)(Cl)Cl)OCC(Cl)(Cl)Cl)O2)c(=O)[nH]c1=O` (stereo not given), the CC50 in data set [1] came out at 100 µM. For the same compound, in the data set with T-cell line, the pEC50 is 8.00.
In the same order, the values of `Cc1cn([C@H]2C[C@H](F)[C@@H](CO)O2)c(=O)[nH]c1=O` [ALOVUDINE] are 100 µM and 8.30.

The values are drawn from ChEMBL document CHEMBL1151515, “Attempts to introduce chemotherapeutic nucleotides into cells: studies on the anti-HIV agent FDT” (Bioorg Med Chem Lett, 1991).
